Test results: US20240325544A1, “CATIONIC LIPID FOR COVALENT MODIFICATION OF PEPTIDES” (PharmalN Corporation, priority 2023, published 2024)
Bridge positions count the residues as written; N and C are the ends. Square brackets hold non-standard residues; d marks the D form. Peptide text beside a SMILES is read from it. * marks the point of attachment. Palmitoyl = CCCCCCCCCCCCCCCC(=O)*; Dap = NC[C@H](N)C(=O)O; AEEA = NCCOCCOCC(=O)O

What was measured:
MC38 colon cancer cells = assay: Subcutaneous mouse model of colon cancer using MC38 cells (FIG. 12); format: in vivo, mice; conditions: monotherapy, 0.3 mg/kg SC, 5 days on, 2 days off, 3 cycles; Day 22
Procedure: FIGS. 12A-12B. […] Error bars represent standard error of the mean. FIG. 12A) A diagram of the dose schedule for administration of immune checkpoint inhibitor (anti-tigit Ab) and SEQ ID NO: 31. FIG. 12 B) Tumor growth kinetics of 6-week-old male C57BL/6J mice (n=8-9 per group) that were subcutaneously inoculated with MC38 colon cancer cells (1,000,000 cells/mouse) in right flank. Starting from Day 4 post-inoculation, anti-tigit Ab was administered intraperitoneally at 5 mg/kg twice a week for 2 cycles; SEQ ID NO: 31 was administered subcutaneously at a bolus dose of 0.3 mg/kg (0.1 μmol/kg) once daily for 5 days (5 days on, 2 days off) for 3 cycles; or a combination of anti-tigit Ab (5 mg/kg IP twice a week; 2 cycles) and SEQ ID NO: 31 (0.3 mg/kg SC once a day for 5 days on and 2 days off; 3 cycles). The control group, which received only buffer, was dosed in the same manner as SEQ ID NO: 31 to establish the baseline tumor growth kinetics. […]
Animal care and treatment: Male C57BL/6J mice (6 weeks-old) were purchased from Kyudo (Saga, Japan) and maintained under a 12-hour light/12-hour dark cycle with free access to water and standard mouse diet (MF diet; Oriental Yeast Co., Ltd, Tokyo Japan). […] Tumor sizes were measured using calipers on Days 4, 7, 14, and Day 22 post-inoculation. […]

NPR-C = molecular target: T1, NPR-C (Homo sapiens, UniProt P17342); assay: cAMP baseline levels in HeLa cells (FIG. 13); format: cell-based; conditions: 10 μg/mL, 10 minutes, 1 mM IBMX
T1 construct: HeLa cells (known to express NPR-C); host or cells: HeLa cells
T1 sequence (P17342 27-541): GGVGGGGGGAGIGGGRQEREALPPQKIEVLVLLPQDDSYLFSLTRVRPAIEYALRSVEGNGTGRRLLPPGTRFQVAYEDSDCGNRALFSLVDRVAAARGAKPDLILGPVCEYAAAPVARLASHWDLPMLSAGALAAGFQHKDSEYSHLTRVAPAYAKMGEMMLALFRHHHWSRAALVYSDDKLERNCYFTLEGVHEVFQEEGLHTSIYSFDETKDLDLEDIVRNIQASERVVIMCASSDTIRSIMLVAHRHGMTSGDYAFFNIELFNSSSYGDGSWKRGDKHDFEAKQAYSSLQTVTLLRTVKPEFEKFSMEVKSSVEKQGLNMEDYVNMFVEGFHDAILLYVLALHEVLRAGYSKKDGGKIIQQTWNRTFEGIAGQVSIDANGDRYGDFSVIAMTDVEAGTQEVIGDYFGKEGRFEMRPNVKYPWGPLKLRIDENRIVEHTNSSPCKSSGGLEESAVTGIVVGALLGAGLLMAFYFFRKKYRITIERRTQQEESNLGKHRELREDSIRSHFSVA
Procedure: In this study, HeLa cells were cultured in Dulbecco modified Eagle medium (DMEM) supplemented with 10% FBS under 100% humidity and 5% CO2 at 37° C. The cells were harvested and suspended at a concentration of 10^7 cells/mL in ENGS and 5 uL of the cell suspension was added to each well of a 96-well low-adhesion plate. The cells (n=4 wells) were then treated with 5 uL of SEQ ID NO: 31 (final concentration of 10 μg/mL) in ENGS with 1 mM IBMX for 10 minutes. cAMP levels were evaluated using a cAMP assay kit (PerkinElmer, Waltham, MA, USA, #62AM4PEB) in accordance with its manufacture's protocol with a PerkinElmer plate reader. Statistical analysis was performed with GraphPad Prism against untreated control wells (n=4 wells) * P<0.05. The NPR-C receptor has been implicated in inhibiting adenylate cyclase activity, which would lead to a decrease in cyclic adenosine monophosphate (cAMP) production.
In vitro protocol: HeLa cells were purchased from ATCC (Manassas, VA, USA). […] Then, the cells (n=4 wells) were treated with 5 uL of SEQ ID NO: 31 (final concentration of 10 μg/mL) in ENGS with 1 mM IBMX (Fujifilm, Tokyo, Japan, #099-03411) for 10 minutes. cAMP levels were evaluated using a cAMP assay kit (PerkinElmer, Waltham, MA, USA, #62AM4PEB) in accordance with its manufacture's protocol with a plate reader (PerkinElmer, Waltham, MA, USA, #Nivo). […]

CCCCCCCCCCCCCCCC(=O)NCCOCCOCC(=O)NCCOCCOCC(=O)NCCOCCOCC(=O)N[C@@H](CN)C(=O)N[C@@H](CN)C(=O)NCC(=O)N[C@@H](CC(C)C)C(=O)N[C@@H](CO)C(=O)N[C@@H](CCCCN)C(=O)NCC(=O)N[C@H]1CSSC[C@@H](C(=O)O)NC(=O)CNC(=O)[C@H](CC(C)C)NC(=O)CNC(=O)[C@H](CO)NC(=O)[C@H](CCC(N)=O)NC(=O)[C@H](CO)NC(=O)CNC(=O)[C@H]([C@@H](C)CC)NC(=O)[C@H](CCCNC(=N)N)NC(=O)[C@H](CC(=O)O)NC(=O)[C@H](CC(C)C)NC(=O)[C@H](CCCCN)NC(=O)[C@H](CC(C)C)NC(=O)CNC(=O)[C@H](Cc2ccccc2)NC1=O [SEQ ID NO: 31] ({Palmitoyl-AEEA-AEEA-AEEA}-[Dap][Dap]GLSKGCFGLKLDRIGSQSGLGC-OH; disulfide 8-24; C-terminus assumed)
Tumor volume and cancer burden compared to the Control group (MC38 colon cancer cells): significant decrease in tumor volume and cancer burden | cAMP baseline levels of HeLa cells (NPR-C): changes (inhibition) of cAMP baseline levels
